The values that follow come from PubChem BioAssay (NCI).

Common to all, as to assay: NCI tumour cell line growth inhibition, 48 h
Experiment [1] deals with SF-539 CNS.
Experiment [2] has as its system NCI-H522 lung.
The subject of experiment [3] is RXF 393 renal.
In experiment [4] the test system is OVCAR-3 ovarian.
In experiment [5] the test system is SR leukemia.
Experiment [6] has as its system CCRF-CEM leukemia.
In experiment [7] the test system is COLO 205 colon.
The subject of experiment [8] is UACC-257 melanoma.
Experiment [9] relates to ACHN renal.
Experiment [10] relates to MOLT-4 leukemia.

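Five concentrations, 48 hours, 96-well plates. Abbreviation: GI50, concentration required for 50% inhibition of growth. TGI denotes the concentration required for complete inhibition of growth.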 A value given as a limit tells only on which side of the number the result lay.

With `Nc1ccn(CCO)c(=O)n1`, the TGI in experiment [1], in experiment [2], in experiment [3], in experiment [4], in [5] and in experiment [6] was more than 100 µM throughout. Besides, the TGI in experiment [7], in experiment [8] and in experiment [9] was more than 100 µM throughout.
Take `NC(=O)c1cc([N+](=O)[O-])c(Cl)c([N+](=O)[O-])c1`: the GI50 in [1] is 2.02 µM; in experiment [2], 1.94 µM; in experiment [10] it was 2.62 µM; in experiment [3] it was 1.69 µM; in experiment [4], 1.97 µM; in experiment [5] it was 1.89 µM. The GI50 is 1.99 µM in experiment [7], 3.87 µM in [8] and 1.87 µM in [9]. Also, the TGI in experiment [1] is 4 µM; in [2], 3.57 µM; in experiment [10] it was 5.68 µM; in [3], 3.11 µM; in experiment [4], 3.51 µM; in experiment [5] it was more than 100 µM. Besides, the TGI stood at 3.5 µM in experiment [7], 15 µM in experiment [8] and 3.37 µM in experiment [9].
Turning to `c1cc(CCN2CCCCC2)ccn1`, the TGI in [1], in [2], in [10], in experiment [3], in experiment [4] and in experiment [5] was more than 100 µM throughout. Also, the TGI in experiment [7], in experiment [8] and in [9] was more than 100 µM throughout.
`CN(CC(=O)O)c1ccc(/C=C/c2ccnc3ccccc23)cc1`: the TGI in [1] is more than 100 µM; in experiment [2], 26.5 µM; in [3], 49.8 µM; in [4], more than 100 µM; in experiment [5] it was 33.7 µM; in experiment [6], 72.5 µM. Besides, the TGI in experiment [7] was 34.3 µM; in experiment [8] it was 65.4 µM; in [9], more than 100 µM.
Take `CC(C)(O)C1CCC(Nc2ccc3ncc(-c4cccc(C(F)(F)F)c4)n3n2)CC1` (centres undefined): the GI50 is 1.77 µM in experiment [1]; 1.73 µM in [2]; 1.8 µM in experiment [10]; 1.11 µM in experiment [3]; 2.99 µM in experiment [4]; 1.87 µM in [5]. Further, the GI50 in [6] was 0.946 µM; in experiment [7] it was 2.62 µM; in experiment [9], 2.12 µM. Besides, the TGI amounted to 11.2 µM in experiment [1]; 5.92 µM in [2]; 7.02 µM in [10]; 2.81 µM in experiment [3]; 13.3 µM in experiment [4]; 11.1 µM in [5]. Moreover, the results for the TGI in experiment [6], in experiment [7] and in experiment [9] were 7.89 µM, 21.5 µM and 12.3 µM, respectively.
In the case of `OCC(O)C(OC1OC(CO)C(O)C(O)C1O)c1nn(-c2ccccc2)c2nc3cc(Cl)c(Cl)cc3cc12` (centres undefined), the TGI in experiment [1], in experiment [2], in [10], in experiment [3], in [4] and in experiment [5] was more than 100 µM in each case. The TGI in experiment [6], in [8] and in experiment [9] was more than 100 µM in each case.
On to `CCCCCCC#Cc1ccccc1C#CCO`, for which the GI50 in [1] is 19 µM; in [2], 18.7 µM; in [3], 16.6 µM; in experiment [4], 14.5 µM; in [5], 39.9 µM; in experiment [7], 17.2 µM. Also, the GI50 in experiment [8] was 26.5 µM; in experiment [9], 18.5 µM. The TGI was 35.6 µM in experiment [1]; 38.6 µM in experiment [2]; 32.9 µM in [3]; 27.6 µM in experiment [4]; more than 100 µM in [5]; 34 µM in experiment [7]. For the same compound, the TGI in experiment [8] was 62.7 µM; in [9], 39 µM.
Take `Cc1ccc(NC(=O)c2cc3ccccc3c(N=Nc3ccccc3O)c2O)c(C)c1`: the TGI in experiment [2] turned out to be 2.61 µM; in [10] it was 10.1 µM; in experiment [3], 19.4 µM; in [4] it was 3.98 µM; in [5] it was 3.53 µM; in experiment [6], 4.75 µM. Besides, the TGI is 11.5 µM in experiment [7], 20 µM in experiment [8] and 16.4 µM in experiment [9].
With `CCc1ccccc1N1CCN(C(=O)c2cc(OC)c(OC)c(OC)c2)CC1`, the TGI is 0.12 µM in experiment [1]; 0.029 µM in experiment [2]; 41.4 µM in experiment [10]; 0.463 µM in [4]; more than 55.1 µM in experiment [5]; more than 100 µM in experiment [6]. Moreover, the TGI in experiment [7] was 0.108 µM; in experiment [8], more than 73.2 µM; in experiment [9], 66.4 µM.
For the compound `O=c1c2cc(Br)ccc2nc(-c2ccccc2Cl)n1NCC1(O)OCC(O)C(O)C1O` (centres undefined), the TGI in experiment [2], in experiment [10], in experiment [3], in [4], in [5] and in experiment [6] was more than 100 µM throughout. For the same compound, the TGI in experiment [7], in [8] and in [9] was more than 100 µM each time.
Regarding `CS(=O)(=O)OCCn1cnc2nc(NC(=O)c3ccccc3)[nH]c(=O)c21`, the TGI in experiment [1], in [2], in experiment [3], in experiment [4], in [5] and in experiment [6] was more than 100 µM throughout. The TGI in experiment [7], in experiment [8] and in [9] was more than 100 µM throughout.
Regarding `O=C1C=C[C@@]23C[C@@H](Nc4c(O)c5c6c(c42)=NCCC=6C=N5)SC3=C1`, the GI50 in [1] is 3.08 µM; in experiment [3], 2.51 µM; in [4], 1.5 µM; in experiment [5], 2.26 µM; in experiment [8] it was 1.67 µM; in experiment [9] it was 3.35 µM. Further, the TGI in experiment [1] was 9.58 µM; in [2], 3.13 µM; in experiment [3], 8.81 µM; in [4], 3.76 µM; in [5], 6.14 µM; in experiment [6] it was more than 27 µM. Moreover, the TGI in experiment [7] was found to be 2.92 µM; in [8], 3.04 µM; in experiment [9], 9.16 µM.
